# Measured values reported in US11767520B2, “Compositions and methods for treating lung inflammation” (aTyr Pharma, Inc., priority 2017, dated 2023).
# What was measured:
# [1] = tested on: bleomycin-induced lung fibrosis; assay: Survival, BLM-induced lung fibrosis mouse model (Example 1, Table E2); format: in vivo, mouse (male C57Bl/6J); conditions: for Survival (number of animals surviving to study day): Dex. 0.25 mg/kg PO, BLM mice, 12 at start
# Description: (§1) Lung inflammation and fibrosis were induced in male C57Bl/6J mice by oropharyngeal administration of BLM. After the habituation phase mice were randomized based on body weight over the different groups. Under isoflurane anesthesia, 50 μl PBS or BLM was dripped onto the vocal cords facilitating aspiration. Mice were sacrificed at day 21 using a terminal bleed under isoflurane anesthesia.
# (§2) Daily oral treatments commenced on Day 0, while daily IV treatments commenced on Day 8. Dosing was planned to continue until the day of termination (Day 21), however, due to high mortality in IV treated groups (see results), IV dosing was skipped on Day 19 and Day 20. […] Subsequently, the mice received 8% D20 (Kinemed, Emeryville) drinking water until sacrifice to maintain labeling of newly formed collagen. Body weight was monitored three times a week.
# The study commenced with 7 animals in the non-diseased control group and 12 animals in the BLM-induced groups. Survival is show in Table E2 below.
# [2] = Body weight, BLM mouse model (Example 1); format: in vivo, mouse (male C57Bl/6J); conditions: BLM-induced mice; daily PO from Day 0: dexamethasone 0.25 mg/kg, Nintedanib 60 mg/kg
# Description: as §1, §2
# [3] = tested on: bleomycin-induced lung fibrosis; assay: Lung wet and dry weight, BLM mouse model (Example 1); format: in vivo, mouse (male C57Bl/6J); conditions: BLM-induced mice; dexamethasone 0.25 mg/kg PO daily from Day 0
# Description: as §1, §2
# (§3) The five lung lobes were collected and isolated. Wet weight of the medial and accessory lung lobes was recorded. The lobes were then snap frozen and stored at <−70° C. until use for hydroxyproline analysis. The left lung lobe was inflated and fixed for 48 hours in 4% formaldehyde and embedded in paraffin for histological analysis. The cranial lung lobe was snap frozen and stored at −80° C. until shipment to Kinemed for the determination of new collagen formation.
# [4] = tested on: bleomycin-induced lung fibrosis; assay: Histological fibrosis (modified Ashcroft) score, BLM mouse model (Example 1); format: in vivo, mouse (male C57Bl/6J); conditions: BLM-induced mice; dexamethasone 0.25 mg/kg/dose from day of BLM instillation; Summary value, significant
# Description: as §3
# Sections of the left lung lobe were stained using Masson's Trichrome and were scored in a blinded fashion using a modified Ashcroft score (Hubner et al., BioTechniques. 44:507-511, 514-507, 2008). Hydroxyproline content was determined in the medial and accessory lung lobes using acid hydrolysis followed by a chromogenic assay (QuickZyme Biosciences, Leiden, Netherlands). Newly formed collagen was measured in the cranial lung lobe by Kinemed Inc., Emeryville, USA using the fraction of body water enriched in 2H for normalization.
# [5] = Serum HRS^FC1 levels by sandwich ELISA, BLM rat model (Example 3); format: in vivo, rat (male Sprague Dawley); conditions: for Serum levels of HRS^FC1 ~24 hours post dose, vs HRS^FC1 plus oral vehicle: FIG. 6; for Amount of HRS^FC1 in serum 24 hours after IV injection: second confirmatory study, identical methods, data not shown
# Description: (§4) All treatments commenced on Day 9.
# (§5) In-life, body weights were measured and clinical observations were conducted daily. On Days 8, 15 and 21, animals were removed from their home cages and placed individually into whole body plethysmography chambers. After a 20-minute acclimatization phase, respiratory parameters were recorded for 10 minutes. Pre-study and on Days 10 and Day 17, whole blood was obtained from the tail vein and processed to serum for measurement of HRS^FC1.
# Serum samples from animals treated with HRS^FC1 were used to determine levels of the protein in systemic circulation using standard sandwich ELISA techniques with antibodies that capture the HRS moiety and detect the Fc portion of the fusion protein.
# All statistical analyses were performed using GraphPad Prism (GraphPad Software, San Diego, Calif.). Groups were compared using the one-way ANOVA test (histology, lung weights, collagen content) or two-way repeated measures ANOVA test (pharmacokinetics), followed, when appropriate by a post-hoc Dunnett test.
# [6] = tested on: bleomycin-induced respiratory impairment; assay: Respiratory measurements by whole body plethysmography, BLM rat model, combination study (Example 3, Table E6); format: in vivo, rat (male Sprague Dawley); parameters: Tidal Volume: unit not given here; conditions: for Expiratory Time / Inspiratory Time / Peak Expiratory Flow / Peak Inspiratory Flow / Tidal Volume / Respiratory Rate / Respiratory Minute Volume: mean; for Respiratory Rate: in breaths/min (unit assumed); for Respiratory Minute Volume: in mL/min (unit assumed)
# Description: (§6) PBS or BLM was administered under isoflurane anesthesia. Excess rats were induced with BLM and used to replace any animals with excessive body weight loss.
# as §4, §5
# [7] = Body weight, BLM rat model, combination study (Example 3); format: in vivo, rat (male Sprague Dawley); conditions: BLM-induced rats; Nintedanib, Pirfenidone or Test Article (HRS^FC1 3 mg/kg IV weekly), alone or in combination, from Day 9
# Description: as §6, §4, §5
# [8] = tested on: bleomycin-induced lung fibrosis; assay: Histological fibrosis (modified Ashcroft) score, BLM rat model, combination study (Example 3); format: in vivo, rat (male Sprague Dawley); conditions: BLM-induced rats; alone or in combination, vs PO plus IV vehicles; data not shown
# Description: (§7) The five lung lobes were collected and weighed. On Day 17, the right accessory lobe was retained and desiccated to obtain dry weight. The remaining right lung lobes were inflated and fixed in 10% neutral buffered formalin and embedded in paraffin for histological analysis. An approximately 50 mg piece of the left lung lobe was snap frozen and stored at −80° C. for potential RNA analysis. The remainder of the lobe was also snap frozen until analyzed for collagen content.
# (§8) Sections for histology were stained using picrosirius red and were scored in a blinded fashion (1 score for each of the 3-4 lobes) by a veterinary pathologist using a modified Ashcroft score (Hubner et al., 2008). Hydroxyproline content was determined in the left lung lobe using a mass spectrometry method.
# (§9) Slides were read by a veterinary pathologist and each of the 3 lobes evaluated was assigned 4 score types [Ashcroft for fibrosis (scores range from 0 to 8), perivascular/peribronchiolar inflammatory cell infiltrate (scores range from 0 to 5), interstitial/alveolar inflammatory cell infiltrate (scores range from 0 to 5), type II pneumocyte hyperplasia (scores range from 0 to 5)].
# [9] = tested on: bleomycin-induced lung inflammation; assay: Interstitial/alveolar inflammatory cell infiltrate score, BLM rat model, combination study (Example 3); format: in vivo, rat (male Sprague Dawley); conditions: BLM-induced rats; alone or in combination, vs PO plus IV vehicles; data not shown
# Description: as §7, §8, §9
# [10] = Day 8 (prior to any treatments), Pirf. PO + Vehicle IV group
compound,measurement,setting,value
C[C@@H]1C[C@H]2[C@@H]3CCC4=CC(=O)C=C[C@]4(C)[C@@]3(F)[C@@H](O)C[C@]2(C)[C@@]1(O)C(=O)CO [dexamethasone],Survival rate,"[1]; BLM-induced mice to Day 21, daily PO from Day 0: dexamethasone 0.25 mg/kg, Nintedanib 60 mg/kg",75%
same,Survival (number of animals surviving to study day),[1]; Day 11,12
same,Survival (number of animals surviving to study day),[1]; Day 12,12
same,Survival (number of animals surviving to study day),[1]; Day 13,11
same,Survival (number of animals surviving to study day),[1]; Day 14,10
same,Survival (number of animals surviving to study day),[1]; Day 15,10
same,Survival (number of animals surviving to study day),[1]; Day 16,10
same,Survival (number of animals surviving to study day),[1]; Day 17,10
same,Survival (number of animals surviving to study day),[1]; Day 18,9
same,Survival (number of animals surviving to study day),[1]; Day 19,9
same,Survival (number of animals surviving to study day),[1]; Day 20,9
same,Survival (number of animals surviving to study day),[1]; Day 21,9
same,"Body weight, of initial body weights",[2],around 90%
same,Decrease of lung wet weight compared to PO vehicle group,[3],15.6%
same,Improvement of Ashcroft fibrosis score,[4],11.3%
HRS^FC1: Test Article of Examples 2 and 3; HRS-Fc fusion protein Fc-HRS(2-60),"Serum levels of HRS^FC1, change between Days 17 and 22","[5]; BLM-induced rats, 3 mg/kg IV on Days 9 and 16",decreased
same,Serum levels of HRS^FC1,"[5]; BLM-induced rats, 3 mg/kg IV on Days 9 and 16, Days 10, 17 and 22",detectable
same,"Serum levels of HRS^FC1 ~24 hours post dose, vs HRS^FC1 plus oral vehicle","[5]; BLM-induced rats, concomitant oral Nintedanib 60 mg/kg once daily",significantly increased
same,"Serum levels of HRS^FC1 ~24 hours post dose, vs HRS^FC1 plus oral vehicle","[5]; BLM-induced rats, concomitant oral Pirfenidone 70 mg/kg per dose three times daily",significantly increased
same,Amount of HRS^FC1 in serum 24 hours after IV injection,[5]; concomitant Nintedanib,increased
same,Amount of HRS^FC1 in serum 24 hours after IV injection,[5]; concomitant Pirfenidone,increased
Cc1ccc(=O)n(-c2ccccc2)c1 [Pirf.],Expiratory Time,[6]; [10],0.153 s
same,Inspiratory Time,[6]; [10],0.114 s
same,Peak Expiratory Flow,[6]; [10],19.5
same,Peak Inspiratory Flow,[6]; [10],17.5
same,Tidal Volume,[6]; [10],1.24
same,Respiratory Rate,[6]; [10],247.6
same,Respiratory Minute Volume,[6]; [10],314.8
same,Expiratory Time,"[6]; Day 15, Pirf. PO + Vehicle IV",0.193 s
same,Inspiratory Time,"[6]; Day 15, Pirf. PO + Vehicle IV",0.135 s
same,Peak Expiratory Flow,"[6]; Day 15, Pirf. PO + Vehicle IV",15.0
same,Peak Inspiratory Flow,"[6]; Day 15, Pirf. PO + Vehicle IV",15.6
same,Tidal Volume,"[6]; Day 15, Pirf. PO + Vehicle IV",1.23
same,Respiratory Rate,"[6]; Day 15, Pirf. PO + Vehicle IV",206.2
same,Respiratory Minute Volume,"[6]; Day 15, Pirf. PO + Vehicle IV",260.2
same,Expiratory Time,"[6]; Day 21, Pirf. PO + Vehicle IV",0.234 s
same,Inspiratory Time,"[6]; Day 21, Pirf. PO + Vehicle IV",0.148 s
same,Peak Expiratory Flow,"[6]; Day 21, Pirf. PO + Vehicle IV",13.0
same,Peak Inspiratory Flow,"[6]; Day 21, Pirf. PO + Vehicle IV",15.8
same,Tidal Volume,"[6]; Day 21, Pirf. PO + Vehicle IV",1.43
same,Respiratory Rate,"[6]; Day 21, Pirf. PO + Vehicle IV",186.5
same,Respiratory Minute Volume,"[6]; Day 21, Pirf. PO + Vehicle IV",259.6
"Cc1ccc(=O)n(-c2ccccc2)c1 [Pirfenidone, pirfenidone]",Body weight curves vs respective controls,[7],"None of the groups treated with Nintedanib, Pirfenidone or Test Article alone or in combination had body weight curves that significantly differed"
same,BLM-induced alterations in respiratory parameters,"[6]; BLM-induced rats, Day 15 and Day 21, Nintedanib, Pirfenidone or Test Article (HRS^FC1)",did not significantly impact
same,Interstitial inflammatory cell infiltrate (as printed in the Ashcroft score paragraph),[8],no significant effect
same,Interstitial inflammatory cell infiltrate,[9],no significant effect
